Biological target: T1, full-length BTK^E41K (Mus musculus, UniProt P35991, E41K)
T1 construct: The full-length BTK was cloned into the pET28-SUMO vector; His-SUMO (N, cleaved yes); made in house; host or cells: E. coli BL21-DE3, co-transformed with YopH and Trigger factor
Test: Autophosphorylation assay by immunoblot (Y551) of purified full-length BTK
Type: biochemical
Details: 2 μM BTK, 100 μM ligand, compared to unliganded state
Experimental: The activation of full-length BTK in response to the ligand was determined from the autophosphorylation Y551 or total phosphotyrosine level. Before each reaction, 2 μM BTK was incubated with 100 μM ligand for 10 min. The phosphorylation reaction was performed at 25 °C in a buffer containing 25 mM Tris-Cl (pH 7.5), 2 mM ATP, 10 mM MgCl2, and 1 mM Na3VO4. The reaction was quenched with SDS–PAGE loading buffer. The autophosphorylation levels of full-length BTK were detected by immunoblot ([22]). The amount of BTK loaded was determined using an anti-BTK antibody. Densitometric analysis of immunoblots was performed using Fiji software ([52]).

T1 sequence (P35991 whole entry E41K): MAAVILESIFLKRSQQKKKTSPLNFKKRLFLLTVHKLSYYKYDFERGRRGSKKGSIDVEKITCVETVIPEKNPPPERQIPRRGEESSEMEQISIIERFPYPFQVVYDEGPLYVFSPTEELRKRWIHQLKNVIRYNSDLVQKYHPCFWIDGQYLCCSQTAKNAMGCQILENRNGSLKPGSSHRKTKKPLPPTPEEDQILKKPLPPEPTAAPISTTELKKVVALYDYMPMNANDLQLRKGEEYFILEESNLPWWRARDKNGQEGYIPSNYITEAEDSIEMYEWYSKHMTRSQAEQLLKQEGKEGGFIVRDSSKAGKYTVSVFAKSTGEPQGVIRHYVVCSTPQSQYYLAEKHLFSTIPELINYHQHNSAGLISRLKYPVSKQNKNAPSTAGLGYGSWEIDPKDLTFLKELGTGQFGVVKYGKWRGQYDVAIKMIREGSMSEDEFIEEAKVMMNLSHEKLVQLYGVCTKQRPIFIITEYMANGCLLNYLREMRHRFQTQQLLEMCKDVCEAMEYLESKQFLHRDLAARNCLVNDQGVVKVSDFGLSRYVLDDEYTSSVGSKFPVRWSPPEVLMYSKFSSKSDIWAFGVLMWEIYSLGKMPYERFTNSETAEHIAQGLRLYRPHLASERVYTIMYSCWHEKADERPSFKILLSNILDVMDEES

O=P(O)(O)OC1C(OP(=O)(O)O)C(OP(=O)(O)O)C(OP(=O)(O)O)C(OP(=O)(O)O)C1OP(=O)(O)O (centres unmarked) [IP6, inositol hexakisphosphate]
Y551 phosphorylation of BTK^E41K: significantly increases

O=P(O)(O)O[C@@H]1[C@H](O)[C@H](O)[C@@H](OP(=O)(O)O)[C@H](OP(=O)(O)O)[C@H]1O [IP3]
Y551 phosphorylation of BTK^E41K: does not induce
